Measurements published in patent US5856156A, “Microbial cholesterol dehydrogenase, process for its production and use” (Boehringer Mannheim GmbH, priority 1994, dated 1999).

System: chol-DH
Assay: Variation of the redox mediators used, chol-DH activity by the HPLC method
Assay type: biochemical, Rhodococcus spec.
Design: reference not given here
Settings: relative chol-DH activity with the mediator as artificial electron acceptor, 37° C., pH 7.0
Procedure: The enzyme sample was purified as described in example 2a) and subsequently its property of converting cholesterol was evaluated with the following methods.
An enzyme test was used to determine the chol-DH activity by quantifying the cholestenone formed in which the enzyme reaction proceeded for a defined time period before it was stopped by adding a protein-denaturing agent. Afterwards the amount of product was determined and expressed as μmol per minute and volume unit of the enzyme solution (=volume activity) or weight unit of the protein (=specific activity).
The cholestenone formed was quantified by HPLC analysis after stopping the chol-DH reaction:
One unit is the enzyme activity which oxidizes 1 μmol cholesterol per minute to cholestenone under the test conditions (37° C., pH 7.0). In this case the chol-DH activity is derived from the difference between the cholestenone concentrations of the test mixture and the blank (see above). [formula]
Apart from methyl-1,4-benzoquinone other redox mediators are suitable as electron acceptors for chol-DH. The chol-DH activity was determined by the HPLC method. Various redox mediators are listed in Table 1 that can serve as artificial electron acceptors for chol-DH.

SMILES	chol-DH [%]
O=C1C(Cl)=CC(=Nc2ccc(O)cc2)C=C1Cl [2,6-dichlorophenol-indophenol]	52
O=Nc1ccc(N(CCO)CCO)cc1 [N,N-bis-2(hydroxyethyl)p-nitrosoaniline]	45
CN(C)c1ccc(N=O)cc1 [N,N-dimethy1-4-nitrosoaniline]	95
CC1=CC(=O)C=CC1=O [methyl-1,4-benzoquinone]	100
O=C1C=CC(=O)C=C1 [p-benzoquinone]	109
O=C1C(Cl)=C(Cl)C(=O)C(Cl)=C1Cl [tetrachloro-p-benzoquinone]	27
